biological target: T1, porcine group IB phospholipase A2 (pG-IB); Pla2 (Sus scrofa, UniProt P00592); assay: colorimetric phenol red assay, […] nm, lecithin hydrolysis; median-effect plot; type: biochemical; details: read-out: Dm (mg/mL) ^a (converted)
T1 construct: gene PLA2G1B; commercial enzyme (Sigma-Aldrich); no tag stated
T1 sequence (P00592 23-146): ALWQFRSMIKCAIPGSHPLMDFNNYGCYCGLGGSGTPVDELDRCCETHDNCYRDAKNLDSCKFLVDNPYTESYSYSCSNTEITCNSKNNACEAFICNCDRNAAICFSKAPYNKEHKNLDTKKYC

Compound	IC50 [µM]
O=c1cc(-c2ccc(O)c(-c3c(O)cc(O)c4c(=O)cc(-c5ccc(O)cc5)oc34)c2)oc2cc(O)cc(O)c12 [amenthoflavone]	200
C[C@H]1[C@H](C)CC[C@]2(C(=O)O[C@@H]3O[C@H](CO[C@@H]4O[C@H](CO)[C@@H](O[C@@H]5O[C@@H](C)[C@H](O)[C@@H](O)[C@H]5O)[C@H](O)[C@H]4O)[C@@H](O)[C@H](O)[C@H]3O)CC[C@]3(C)C(=CC[C@@H]4[C@@]5(C)C[C@@H](O)[C@H](O)[C@@](C)(CO)[C@@H]5CC[C@]43C)[C@H]12 [asiaticoside]	328
C[C@@H]1CC[C@@]2(OC1)O[C@H]1C[C@H]3[C@@H]4CC=C5C[C@@H](O)CC[C@]5(C)[C@H]4CC[C@]3(C)[C@H]1[C@@H]2C [diosgenin]	2330
